Measurements: patent US20230087766A1, “METHODS OF REACTIVATING LATENT HUMAN IMMUNODEFICIENCY VIRUS AND RELATED COMPOSITIONS” (priority 2017, published 2023)

Test system: ACSS2
Assay: ACSS2 expression in J-Lat A1 cells
Format: cell-based
Conditions: Na-Cro treatment
Description: FIG. 3 is a series of graphs showing that suppression of acetyl-CoA synthetase 2 (ACSS2) enzyme disrupts crotonyl-CoA induced reactivation of latent HIV. Panel A illustrates that Na-Cro addition to J-Lat Al cells increased expression of ACSS2 enzyme. **, p<0.01 compared with control treatment. Panel B illustrates expression of ACSS2 after ACSS2 siRNA knockdown in TZM-bl HIV reporter cells. **, p<0.01 compared with control siRNA. Panel C illustrates knockdown of ACSS2 decreased Na-Cro-driven HIV transcription. *, p<0.05 compared with control siRNA. Panels D and E illustrate that pretreatment with ACSS2 inhibitor, AR12, dampens reactivation of latent HIV (see panel D) by inhibition of histone crotonylation (see panel E) at the HIV LTR. **, p<0.01 and ***, p<0.001, compared with control treatment. ##, p<0.01 and ###, p<0.001 compared with Na-Cro treatment.

C/C=C/C(=O)[O-].[Na+] [Na-Cro, sodium crotonate]
increase in ACSS2 expression: 70 fold
